These results are taken from patent US12509429B2, “Hydroxybenzamide derivatives and methods of use in treating diabetes” (THE BOARD OF REGENTS OF THE UNIVERSITY OF OKLAHOMA, priority 2022, dated 2025).

Format in all cases: cell-based, rat
The subject of assay [1] is ATF6 activation (BiP mRNA). The assay can be described thus: qRT-PCR of BiP mRNA (Tm-induced ATF6 activation) in INS-1 cells. To be noted: compound 5 μM, Tm 0.5 μg/ml, 4 h and 8 h, normalized to cyclophilin A, listed as WO3i. Here is the method: BiP mRNA levels by qRT-PCR in INS-1 cells treated for 4 h (A) and 8 h (B) with WO3i at 5 μM in the presence or absence of Tm (0.5 μg/ml). Data are presented as the fold change after normalized to cyclophilin A mRNA.
(§1) Total RNA was extracted from INS-1 cells using TRIzol reagent (Invitrogen, Carlsbad, CA) according to the manufacturer's protocol. 2 μg of total RNA was reverse transcribed using Superscript IV kit (Invitrogen). Real-time PCR was performed with a CFX96 Real-Time PCR detection system (Bio-Rad, CA) using SYBR Select Master Mix (Applied Biosystems, CA).
(§2) Relative mRNA levels were normalized against Cyclophilin A and were determined by ΔΔCt calculated from the difference in ΔCt values between the target gene and Cyclophilin A with and without treatment, based on comparative CT (cycle threshold) method.

The test system of assay [2] is INS-1 β cells. The experiment in a line: Live-cell phase-contrast images of INS-1 cells under ER stress. To be noted: Tm 0.5 μg/mL, compound 5 μM, 24 h, phase-contrast/bright field. The procedure: INS-1 cells were treated with or without Tm (0.5 μg/mL) in the presence of WO3i (5 μM) or DMSO (0.1%) for 24 h, and live-cell phase-contrast images were acquired (magnification 10×).

Assay [3] relates to IRE1α activation (Xbp1-s mRNA). The assay can be described thus: qRT-PCR of spliced Xbp1 mRNA (Tm-induced IRE1α activation) in INS-1 cells. The note with it: compound 5 μM, Tm 0.5 μg/ml, 4 h and 8 h, normalized to cyclophilin A, listed as WO3i. The procedure:
Spliced Xbp1 (Xbp1-s) mRNA levels by qRT-PCR in INS-1 cells treated for 4 h (A) and 8 h (B) with WO3i at 5 μM in the presence or absence of Tm (0.5 μg/ml). Data are presented as the fold change after normalized to cyclophilin A mRNA.
as §1, §2

Assay [4] concerns CHOP mRNA. The assay can be described thus: qRT-PCR of Tm-induced CHOP mRNA expression in INS-1 cells. The note with it: compound 5 μM, Tm 0.5 μg/ml, 4 h and 8 h, normalized to cyclophilin A, listed as WO3i. The procedure:
CHOP mRNA levels by qRT-PCR in INS-1 cells treated for 4 h (A) and 8 h (B) with WO3i at 5 μM in the presence or absence of Tm (0.5 μg/ml). Data are presented as the fold change after normalized to cyclophilin A mRNA.
as §1, §2

In assay [5] the test system is PERK activation (ATF4 mRNA). The assay can be described thus: qRT-PCR of ATF4 mRNA (Tm-induced PERK activation) in INS-1 cells. To be noted: compound 5 μM, Tm 0.5 μg/ml, 4 h and 8 h, normalized to cyclophilin A, listed as WO3i. Here is the method: ATF4 mRNA levels by qRT-PCR in INS-1 cells treated for 4 h (A) and 8 h (B) with WO3i at 5 μM in the presence or absence of Tm (0.5 μg/ml). Data are presented as the fold change after normalized to cyclophilin A mRNA.
as §1, §2

The test system of assay [6] is INS-1 β cells. The assay can be described thus: Western blotting of cleaved caspase-3 and PARP (Tm-induced apoptosis). The note with it: INS-1 cells, Tm 0.3 μg/ml, 24 h, co-treatment at 1 and 5 μM, Western blot. Here is the method: INS-1 cells were treated with or without Tm (0.3 μg/ml) in the presence of WO3i at indicated concentrations or DMSO for indicated times. Cleaved caspase-3 and PARP were determined by Western blotting. GADPH was used as a loading control. The data shown are representative of 3 independent experiments.
INS-1 cells cultured in 60-mm dishes were washed with PBS and lysed with lysis buffer (Cell Signaling Technology, Danvers, MA) containing protease and phosphatase inhibitors (Thermo). Aliquots of 20 μg total protein were separated on 10% SDS-PAGE gels (Life Technologies) and transferred to PVDF membranes (Life Technologies). The membranes were probed with primary antibodies followed by the appropriate HRP-conjugated secondary antibodies. Blots were then developed using Pierce ECL Western Blotting Substrate (cat no 32106). The primary antibodies and dilutions used were: cleaved caspase 3 (1:1000, 9661, Cell Signaling Technology, MA, USA), and PARP (1:1000, 9542L, Cell Signaling Technology), and GAPDH (1:1000, SC-32233, Santa Cruz Biotechnology). Secondary antibodies used: goat anti rabbit IgG and goat anti-mouse IgG, 1:5000; Santa Cruz Biotechnology, Santa Cruz, CA).
To determine whether the increase in cell viability following treatment with WO3i was caused by a suppression of apoptotic cell death, levels of cleaved caspase-3 and cleaved PARP were assessed by Western blotting. […] However, upon severe ER stress, caspase 3 undergoes proteolytic cleavage to form the active enzyme, which in turns cleaves PARP, to trigger apoptotic cell death.

The subject of assay [7] is INS-1 cells. The experiment in a line: Cell viability assay: protection of INS-1 cells from tunicamycin (Tm)-induced loss of viability (CellTiter-Glo, intracellular ATP). To be noted: Rattus norvegicus, INS1. Here is the method: INS-1 cells were resuspended in RPMI 1640 medium containing 10% FBS and seeded at 5×10^3 cells/well in a 384-well plate. After overnight 24 h incubation, compounds were added to the wells at the indicated concentration using a pin-transfer robot (PerkinElmer). Tm in RPMI 1640 medium containing 10% FBS was then added at a final concentration of 0.15 μg/mL. After 72 h, the medium was removed and 20 μL of CellTiter-Glo reagent (Promega) was added. Luminescence was measured 10 min later using a Synergy Neo2 plate reader (Biotek).
Hydroxy benzamide (HBA) derivatives were synthesized based on various scaffolds and evaluated for their viability of rat INS-1 β cells in the presence of tunicamycin (Tm), a potent ER stress inducer that inhibits N-linked glycosylation of proteins. The maximum activities and the concentrations that reach half-maximal activity (EC50) of the compounds were evaluated by the degree of increase in viability of INS-1 cells co-treated with the compounds in the presence of Tm compared with Tm treatment alone.

Molecules are shown by their SMILES. “Also recorded” adds a separate entry of the source.

Take `O=C(NCc1ccc(C(F)(F)F)cc1)c1cccc(O)c1` [Compound 3i, 3-Hydroxy-N-(4-(trifluoromethyl)benzyl)benzamide]: in assay [1], the “Tm-induced BiP mRNA level (ATF6 activation)” value is “completely suppressed; also recorded: suppresses”. Moreover, the “Preservation of INS-1 β cell viability under ER stress (images)” value is “significantly more cells were preserved” in assay [2] (listed as WO3M) and “preserves the INS-1 β cell viability” in assay [2] (listed as WO3i). Also, in assay [3], the “Tm-induced spliced Xbp1 (Xbp1-s) mRNA level (IRE1α activation)” value is given as “eliminated; also recorded: suppresses”. Further, in assay [4], the “Tm-induced CHOP mRNA expression” value is given as “markedly diminished; also recorded: suppresses”. Besides, the “Tm-induced ATF4 mRNA level (PERK activation)” value in assay [5] is listed as “abolished; also recorded: suppresses”. Moreover, the “Tm-induced apoptosis: cleavage of caspase-3 and PARP” value in assay [6] is “suppresses”; in assay [6] (listed as WO3) it was “almost completely abolished”; in assay [6] (listed as WO3M), “suppresses”; in assay [6] (listed as WO3i) it was “suppresses”. For the same compound, the Emax in assay [7] (% rescue from Tm (0.15 μg/mL)-induced reduction of INS-1 cell viability (intracellular ATP), Tm alone 0%, DMSO without Tm 100%, 72 h, read-out: Maximum % of Protection) is 100%. Moreover, in assay [7] (INS-1 cell viability, Tm 0.15 μg/mL, ten 2-fold serial titration points, GraphPad Prism), the EC50 stood at 0.19 µM.
